Reference: EP0305184A1, “Pyrimidines or their pharmaceutically acceptable salts thereof” (MITSUI PHARMACEUTICALS, INC., priority 1987, dated 1989)
Values joined by “and” are separate entries in the source; they are usually repeats but may differ in a detail not shown here. Equal values may be shown once. Read-outs that look alike come from different tables or passages of the source.

Key:
mouse = assay: Acute toxicity; format: in vivo; settings: p.o., 24 hours after administration
Protocol: (§1) The acute toxicity of the compounds of the invention was examined by the following method.
(§2) Male ddy-strain 5-week old mice and male Wistar-strain 8 week old rats, five per group, were used as experimental animals. Each of the compounds was dissolved in saline and administered perorally (p.o.) or intraperitoneally (i.p.), and the toxicity of the compound was assessed 24 hours after the administration.

Acute toxicity = format: in vivo; settings: in vivo, mouse, 24 hours after administration
Protocol: as §1, §2

[1] = tested on: mice with nerve disorder induced by mercury poisoning; assay: T-shaped maze learning and memory of mice with mercury poisoning; format: in vivo, Male BalbC strain mice; settings: 102 69.5, 116 76.9 mg/kg.ip/day; for running time: mean ± SE, after MMC; for Number of mice which ran to the safety area within 5 seconds: numerator: at least 8 of ten runs within 5 seconds, denominator: mice tested, after MMC 6 mg/kg/day
Protocol: Male BalbC strain mice, 7 weeks old, were first caused to learn a T-shaped maze three times in a week so that they run straight from a starting point to a safety area. Then, methylmercury chloride (MMC for short) was administered orally in a dose of 6 mg/kg/day for 6 days. A group of mice to which saline was administered in a dose of 0.1 ml/10 g/day was used as a control group. Beginning with the day next to the day of administering MMC, compounds Nos. 102 and 116 were intraperitoneally administered over 10 days in a dose of 69.5 mg/kg/day and 76.9 mg/kg/day, respectively, so as to make the mole numbers of the compounds equal. On the sixth day after administration of the drug (namely, on the 12th day after start of the experiment), learning of the T-shaped maze was resumed, and the running behaviors of the mice were observed. The number of mice which could be experimented in the T-shaped maze on the 10th and 11th days after the resumption (21st and 22nd days after the start of the experiment) was counted and expressed as a denominator. The number of mice which ran to the safety area within 5 seconds at least 8 times out of ten trial runnings was counted and expressed as a numerator. The decrease in the number of the test animals was due to death by MMC poisoning. The time (seconds) required for the animals to run to the safety area was measured, and the mean ± standard error (SE) was calculated.

[2] = tested on: rats having the lesioned nigral dopaminergic nerve cells; assay: Methamphetamine-induced rotational movement after 6-hydroxydopamine lesion and fetal dopamine cell transplantation; format: in vivo, female Wistar rats
Protocol: Nigral dopaminergic nerve cells at the left side of the brain of 4-week old female Wistar rats (body weight 100 g) were lesioned by injecting a very small quantity of 6-hydroxydopamine. […] Upon administration of methamphethamine (5 mg/kg, i.p.) to the rats having the lesioned nigral dopaminergic nerve cells, they began rotational movement toward the lesioned side.
After two weeks from the destruction by the administration of the drug, portions of the truncus corporis callosi containing dopamine cells (i. e., substantia nigra and the tagmentum at the abdomen side) were cut from the brain of a fetal rat of 14 to 17 days of age, cut finely, and treated with trypsin. Then, the extracted tissues were incubated at 37°C for 30 minutes, and the tissues were subjected to pipetting to form a suspension. Five microliters of the suspension was transplanted each into two sites of the caudate nucleus of the lesioned side (10 microliters in total, about 10⁵ cells).
Each of the compounds (I) in a dose of 100 mg/kg (i.p.) was administered every day over two weeks from the day of transplantation. The rotational movements induced by administration of methamphetamine were examined 2 weeks and 1 week before, and 2 weeks and 4 weeks after, the transplantation and the administration of the drug. The number of rotational movements within one minute was counted at intervals of 10 minutes after the administration of methamphetamine, and the total number of rotational movements counted six times was averaged to find a mean number of the rotational movements.

[3] = tested on: rats with crushed sciatic nerves; assay: Curative effect on rats with crushed sciatic nerves; format: in vivo, male Wistar rats; settings: i.p. once a day, Compound 118 30 mg/kg, Mecobalamin 0.5 mg/kg, mean ± S.E.; for Rate of recovery in muscle weight (%): soleus muscle, crushed side/normal side
Protocol: The curing effect of the compound (I) of the invention was tested on rats having crushed sciatic nerves as a model of peripheral nervous disorder using (1) a change in the action of the hind paw with the crushed sciatic nerves and (2) a change in the weight of the muscle as an index of the course of degeneration and regeneration of peripheral nerves.
In the experiment, male Wistar rats (6 weeks old), seven per group, were used. The sciatic nerves were crushed by a method similar to the method of Yamatsu et al. (see Kiyomi Yamatsu, Takenori Kaneko, Akifumi Kitahara and Isao Ohkawa, Journal of Japanese Pharmacological Society, 72, 259-268 (1976) and the method of Hasegawa et al. (see Kazuo Hasegawa, Naoji Mikuni and Yutaka Sakai, Journal of Japanese Pharmacological Society, 74 721-734 (1978). Specifically, under anesthesia with pentobarbital (40 mg/kg, i.p.), the left side sciatic nerve was exposed at the femur and that site of the exposed sciatic nerve which was 5 mm to the center from the branched part between the N. tibialis and the N. suralis was crushed using a modified artery, klomme, having a width of 2 mm and a gap of 0.1 mm. After the operation, the rats were assigned to the test groups at random.
Compound No. 118 was selected as the compound (I) of the invention and intraperitoneally administered to the rats once a day from the day of operation to the 22nd day. A group to which mecobalamin (made by Gedeon Richter Ltd.) was administered and a group to which 0.9 % saline was administered were used as controls. The following items were measured with the lapse of time (on the lst, 4th, 7th, 10th, 14th, 17th, 21st, and 23rd days after the crushing of the sciatic nerves).
By a method similar to the method of Hasegawa [Hasegawa, K., Experientia, 34, 750-751 (1978)], the distance between the first and fifth digits of the hind paw was measured.
The ratio of the measured distance to the normal distance was calculated and expressed in percentage (%).
It is known that the removal of a nerve or its disorder causes atrophy of the muscle which is under its control, and the atrophy is gradually cured by re-control by the nerve. For this reason, a change in the weight of the muscle, which is quantitative, was selected as an index. Twenty-three days after the operation, the soleus muscles of both sides of paws were extracted under anesthesia with pentobarbital, and their weights were measured. The ratio of the weight of the soleus muscle on the crushed side to that of normal side was calculated and expressed in percentage (%).

[4] = po, p.o., read-out: Estimated LD₅₀ (mg/kg, p.o.)
[5] = ip, i.p., read-out: Estimated LD₅₀ (mg/kg, i.p.)

Structure (SMILES): CC(C)Nc1ncc2c(n1)N(C)C(=O)C2.Cl [Compound 102, 2-iso-Propylamino-5,6-dihydro-7-methyl-6-oxo(7H)pyrrolo[2,3-d]pyrimidine hydrochloride]
- Number of dead animals/number of animals tested (mouse; Dose 1000 mg/kg): 0/5
- LD50 at 24 h (Acute toxicity; [4]): > 1000 mg/kg
- running time ([1]; 10th day after resumption): 2.1 ± 0.2 s
- Number of mice which ran to the safety area within 5 seconds ([1]; 10th day after resumption): 6/6
- running time ([1]; 11th day after resumption): 3.0 ± 0.6 s
- Number of mice which ran to the safety area within 5 seconds ([1]; 11th day after resumption): 6/6

Structure (SMILES): CC(C)Nc1ncc2c(n1)N(C)C(=O)C2.O=C(O)/C=C\C(=O)O [Compound 104, 2-iso-Propylamino-5,6-dihydro-7-methyl-6-oxo(7H)pyrrolo[2,3-d]pyrimidine maleate]
- Number of rotational movements of rats and average values thereof (mean ±S.D.) ([2]; 2W after transplantation, 100 mg/kg (i.p.) every day over two weeks, maleate, 100 mg/kg): 2.0±3.2 and 3.1±3.8
- Number of rotational movements of rats and average values thereof (mean ±S.D.) ([2]; -1W (before transplantation and drug administration, baseline), maleate): 10.8±3.8 and 10.4±5.2
- Number of rotational movements of rats and average values thereof (mean ±S.D.) ([2]; -2W (before transplantation and drug administration, baseline), maleate): 12.3±3.7 and 10.1±6.1

Structure (SMILES): CN(C)c1ncc2c(n1)N(C)C(=O)C2 [Compound 108]
- Number of dead animals/number of animals tested (mouse; Dose 1000 mg/kg): 2/5
- LD50 at 24 h (Acute toxicity; [4]): > 1000 mg/kg

Structure (SMILES): CN1C(=O)Cc2cnc(N3CCCC3)nc21 [Compound 112]
- Number of dead animals/number of animals tested (mouse; Dose 1000 mg/kg): 0/5
- LD50 at 24 h (Acute toxicity; [4]): > 1000 mg/kg

Structure (SMILES): CN1C(=O)Cc2cnc(N3CCCCC3)nc21 [Compound 118]
- Number of rotational movements of rats and average values thereof (mean ±S.D.) ([2]; 2W after transplantation, 100 mg/kg (i.p.) every day over two weeks): 1.9±3.2
- Number of rotational movements of rats and average values thereof (mean ±S.D.) ([2]; -1W (before transplantation and drug administration, baseline)): 13.9±7.4 and 10.8±4.9
- Number of rotational movements of rats and average values thereof (mean ±S.D.) ([2]; -2W (before transplantation and drug administration, baseline)): 9.1±5.6
- Number of rotational movements of rats and average values thereof (mean ±S.D.) ([2]; column headed 3W, footnote: * Data at 2 W, 100 mg/kg (i.p.) every day over two weeks): *5.5±7.2
- Rate of recovery of the interdigit distance (%) ([3]; 21st day): 79.8±2.5 %
- Rate of recovery of the interdigit distance (%) ([3]; 23rd day): 87.9±3.3 %
- Rate of recovery in muscle weight (%) ([3]; 23rd day): 59.6±2.8 %
- Number of dead animals/number of animals tested (mouse; Dose 1000 mg/kg): 0/5
- LD50 at 24 h (Acute toxicity; [5]): 500 to 1000 mg/kg
- LD50 at 24 h (Acute toxicity; [4]): > 1000 mg/kg

Structure (SMILES): CN1C(=O)Cc2cnc(N3CCOCC3)nc21 [Compound 122]
- Number of dead animals/number of animals tested (mouse; Dose 1000 mg/kg): 1/5
- LD50 at 24 h (Acute toxicity; [4]): > 1000 mg/kg

Structure (SMILES): CN1C(=O)Cc2cnc(N3CCSCC3)nc21 [Compound 126]
- Number of dead animals/number of animals tested (mouse; Dose 1000 mg/kg): 0/5
- LD50 at 24 h (Acute toxicity; [4]): > 1000 mg/kg

Structure (SMILES): CCN(CC)C(=O)N1CCN(c2ncc3c(n2)N(C)C(=O)C3)CC1 [Compound 132, 2-Diethylaminocarbonylpiperazino-5,6-dihydro-7-methyl-oxo(7H)pyrrolo[2,3-d]pyrimidine]
- Number of dead animals/number of animals tested (mouse; Dose 1000 mg/kg): 1/5
- LD50 at 24 h (Acute toxicity; [4]): > 1000 mg/kg

Structure (SMILES): CN1CCN(c2ncc3c(n2)N(C)C(=O)C3)CC1 [Compound 138]
- Number of dead animals/number of animals tested (mouse; Dose 1000 mg/kg): 0/5
- LD50 at 24 h (Acute toxicity; [5]): 250 to 500 mg/kg
- LD50 at 24 h (Acute toxicity; [4]): > 1000 mg/kg

Structure (SMILES): CC1CCN(c2ncc3c(n2)N(C)C(=O)C3)CC1 [Compound 175]
- LD50 at 24 h (Acute toxicity; [5]): 500 to 1000 mg/kg

Structure (SMILES): CN1Cc2nc(N3CCCC3)ncc2C1=O [Compound 216]
- Number of dead animals/number of animals tested (mouse; Dose 550 mg/kg): 0/5
- LD50 at 24 h (Acute toxicity; [4]): > 550 mg/kg

Structure (SMILES): CN1Cc2nc(N3CCCCC3)ncc2C1=O [Compound 218]
- Number of dead animals/number of animals tested (mouse; Dose 550 mg/kg): 0/5
- LD50 at 24 h (Acute toxicity; [4]): > 550 mg/kg

Structure (SMILES): C/C1=C2/[N-][C@H]([C@H](CC(N)=O)[C@@]2(C)CCC(=O)NC[C@@H](C)OP(=O)([O-])O[C@H]2[C@@H](O)[C@@H](n3cnc4cc(C)c(C)cc43)O[C@@H]2CO)[C@]2(C)N=C(/C(C)=C3N=C(/C=C4N=C1[C@@H](CCC(N)=O)C\4(C)C)[C@@H](CCC(N)=O)[C@]\3(C)CC(N)=O)[C@@H](CCC(N)=O)[C@]2(C)CC(N)=O.[CH3-].[Co+3] [Mecobalamin, reference compound]
- Rate of recovery of the interdigit distance (%) ([3]; 21st day): 79.1±2.6 %
- Rate of recovery of the interdigit distance (%) ([3]; 23rd day): 88.3±4.0 %
- Rate of recovery in muscle weight (%) ([3]; 23rd day): 55.0±3.5%
